Measured values taken from patent US20080287430A1, “Furan Compounds Useful As Ep1 Receptor Antagonists” (priority 2005, published 2008).

Each molecule was assayed against T1, human EP1 receptor (Homo sapiens, UniProt P34995) (assay: human EP1 calcium mobilisation assay). Settings: human EP1, PGE2-induced calcium mobilisation in CHO-K1 cells; free bases or sodium salts; averages of a number of experiments; read-out: functional pKi value (converted).
T1 construct: expressed in transfected cells; host or cells: CHO-K1
T1 sequence (P34995 1-402): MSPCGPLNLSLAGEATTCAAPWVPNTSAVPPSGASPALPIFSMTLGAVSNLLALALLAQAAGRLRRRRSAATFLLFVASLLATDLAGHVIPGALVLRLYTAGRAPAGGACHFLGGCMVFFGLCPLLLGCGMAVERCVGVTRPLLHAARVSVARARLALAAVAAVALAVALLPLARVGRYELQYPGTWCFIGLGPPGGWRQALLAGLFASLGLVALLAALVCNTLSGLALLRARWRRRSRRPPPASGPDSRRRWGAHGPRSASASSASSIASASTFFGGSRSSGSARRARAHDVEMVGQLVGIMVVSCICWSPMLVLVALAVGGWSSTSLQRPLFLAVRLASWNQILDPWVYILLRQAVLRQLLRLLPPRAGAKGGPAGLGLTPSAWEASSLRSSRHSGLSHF
Assay type: cell-based
Procedure: Briefly, the antagonist properties of compounds are assessed by their ability to inhibit the mobilisation of intracellular calcium ([Ca^2+]i) in response to activation of EP1 or EP3 receptors by the natural agonist hormone prostaglandin E2 (PGE2). Increasing concentrations of antagonist reduce the amount of calcium that a given concentration of PGE2 can mobilise. The net effect is to displace the PGE2 concentration-effect curve to higher concentrations of PGE2. The amount of calcium produced is assessed using a calcium-sensitive fluorescent dye such as Fluo-4, AM and a suitable instrument such as a Fluorimetric Imaging Plate Reader (FLIPR). Increasing amounts of [Ca^2+]i produced by receptor activation increase the amount of fluorescence produced by the dye and give rise to an increasing signal. The signal may be detected using the FLIPR instrument and the data generated may be analysed with suitable curve-fitting software.
The human EP1 or EP3 calcium mobilisation assay (hereafter referred to as ‘the calcium assay’) utilises Chinese hamster ovary-K1(CHO-K1) cells into which a stable (pCIN; BioTechniques 20 (1996): 102-110) vector containing either EP1 or EP3 cDNA has previously been transfected. Cells are cultured in suitable flasks containing culture medium such as DMEM:F-12 supplemented with 10% v/v foetal calf serum, 2 mM L-glutamine, 0.25 mg/ml geneticin, 100 μM flurbiprofen and 10 μg/ml puromycin.
For assay, cells are harvested using a proprietary reagent that dislodges cells such as Versene. Cells are re-suspended in a suitable quantity of fresh culture media for introduction into a 384-well plate. Following incubation for 24 hours at 37° C. the culture media is replaced with a medium containing Fluo-4 and the detergent pluronic acid, and a further incubation takes place. Concentrations of compounds are then added to the plate in order to construct concentration-effect curves. This may be performed on the FLIPR in order to assess the agonist properties of the compounds. Concentrations of PGE2 are then added to the plate in order to assess the antagonist properties of the compounds.
The data so generated may be analysed by means of a computerised curve-fitting routine. The concentration of compound that elicits a half-maximal inhibition of the calcium mobilisation induced by PGE2 (pIC50) may then be estimated.

Row | SMILES | Ki
1 | CCCOc1ccc(Cl)cc1Cc1ccc(C(=O)O)o1 [Example 1, Sodium 5-{[5-chloro-2-(propyloxy)phenyl]methyl}-2-furancarboxylate] | < 1000 nM
2 | CC(C)Oc1ccc(Cl)cc1Cc1ccc(C(=O)O)o1 [Example 2, Sodium 5-({5-chloro-2-[(1-methylethyl)oxy]phenyl}methyl)-2-furancarboxylate] | < 1000 nM
3 | CCC(CC)Oc1ccc(Cl)cc1Cc1ccc(C(=O)O)o1 [Example 4, Sodium 5-({5-chloro-2-[(1-ethylpropyl)oxy]phenyl}methyl)-2-furancarboxylate] | < 1000 nM
4 | COCCOc1ccc(Cl)cc1Cc1ccc(C(=O)O)o1 [Example 8, Sodium 5-[(5-chloro-2-{[2-(methyloxy)ethyl]oxy}phenyl)methyl]-2-furancarboxylate] | < 1000 nM
5 | Cc1cc(COc2ccc(Cl)cc2Cc2ccc(C(=O)O)o2)on1 [Example 9, Sodium 5-[(5-chloro-2-{[(3-methyl-5-isoxazolyl)methyl]oxy}phenyl)methyl]-2-furancarboxylate] | < 1000 nM
6 | CC(C)CCOc1ccc(Cl)cc1Cc1ccc(C(=O)O)o1 [Example 11, Sodium 5-({5-chloro-2-[(3-methylbutyl)oxy]phenyl}methyl)-2-furancarboxylate] | < 1000 nM
7 | O=C(O)c1ccc(Cc2cc(Cl)ccc2OCCc2ccccc2)o1 [Example 12, Sodium 5-({5-chloro-2-[(2-phenylethyl)oxy]phenyl}methyl)-2-furancarboxylate] | < 1000 nM
8 | Cc1cc(C(=O)O)oc1Cc1cc(Cl)ccc1OCC(C)C [Example 14, Sodium 5-({5-chloro-2-[(2-methylpropyl)oxy]phenyl}methyl)-4-methyl-2-furancarboxylate] | ≤ 10 nM

Second part, the molecule after the results:

Row | Ki | SMILES
9 | ≤ 10 nM | O=C(O)Cc1ccc(Cc2cc(Cl)ccc2OCc2ccccc2)o1 [Example 16, Sodium [5-({5-chloro-2-[(phenylmethyl)oxy]phenyl}methyl)-2-furanyl]acetate]
10 | ≤ 10 nM | O=C(O)c1ccc(Cc2cc(Cl)ccc2OCc2ccncc2Cl)o1 [Example 17, Sodium 5-[(5-chloro-2-{[(3-chloro-4-pyridinyl)methyl]oxy}phenyl)methyl]-2-furancarboxylate]
11 | ≤ 10 nM | O=C(O)c1ccc(Cc2cc(Cl)ccc2OCc2cc(F)c(F)c(F)c2)o1 [Example 24, Sodium 5-[(5-chloro-2-{[(3,4,5-trifluorophenyl)methyl]oxy}phenyl)methyl]-2-furancarboxylate]
12 | ≤ 10 nM | O=C(O)c1ccc(Cc2cc(Cl)ccc2OCc2ccccn2)o1 [Example 26, Sodium 5-({5-chloro-2-[(2-pyridinylmethyl)oxy]phenyl}methyl)-2-furancarboxylate]
13 | < 1000 nM | O=C(O)c1ccc(Cc2cc(Cl)ccc2OCc2cccnc2)o1 [Example 27, Sodium 5-({5-chloro-2-[(3-pyridinylmethyl)oxy]phenyl}methyl)-2-furancarboxylate]
14 | ≤ 10 nM | O=C(O)c1ccc(Cc2cc(Cl)ccc2OCc2ccncc2)o1 [Example 28, Sodium 5-({5-chloro-2-[(4-pyridinylmethyl)oxy]phenyl}methyl)-2-furancarboxylate]
15 | < 1000 nM | CC(C)COc1ccc(Cl)cc1Cc1ccc(NC(=O)OC(C)(C)C)o1 [Example 29, 1,1-Dimethylethyl[5-({5-chloro-2-[(2-methylpropyl)oxy]phenyl}methyl)-2-furanyl]carbamate]
16 | < 1000 nM | Cc1cc(NC(=O)OC(C)(C)C)oc1Cc1cc(Cl)ccc1OCC(C)C [Example 30, 1,1-Dimethylethyl[5({5-chloro-2-[(2-methylpropyl)oxy]phenyl}methyl)-4-methyl-2-furanyl]carbamate]
17 | < 1000 nM | Cc1cc(C(=O)NCc2ccccc2)oc1Cc1cc(Cl)ccc1OCc1ccccc1 [Example 31, 5-({5-Chloro-2-[(phenylmethyl)oxy]phenyl}methyl)-4-methyl-N-(phenylmethyl)-2-furancarboxamide]
18 | < 1000 nM | Cc1cc(C(=O)NCc2ccccc2)oc1Cc1cc(Cl)ccc1OCC(C)C [Example 32, 5-({5-Chloro-2-[(2-methylpropyl)oxy]phenyl}methyl)-4-methyl-N-(phenylmethyl)-2-furancarboxamide]
